# Experimental data from patent US20090088432A1, “Thiazolinones and Oxazolinones and their Use as Ptp1b Inhibitors” (priority 2005, published 2009).
# Molecular target: T1, Recombinant human Protein-tyrosine phosphatase1B (PTP1B) (Homo sapiens, UniProt P18031)
# T1 construct: Recombinant human Protein-tyrosine phosphatase1B (PTP1B) (amino acid 1-322 Biomol, USA); purchased Biomol, USA
# T1 sequence (P18031 1-322): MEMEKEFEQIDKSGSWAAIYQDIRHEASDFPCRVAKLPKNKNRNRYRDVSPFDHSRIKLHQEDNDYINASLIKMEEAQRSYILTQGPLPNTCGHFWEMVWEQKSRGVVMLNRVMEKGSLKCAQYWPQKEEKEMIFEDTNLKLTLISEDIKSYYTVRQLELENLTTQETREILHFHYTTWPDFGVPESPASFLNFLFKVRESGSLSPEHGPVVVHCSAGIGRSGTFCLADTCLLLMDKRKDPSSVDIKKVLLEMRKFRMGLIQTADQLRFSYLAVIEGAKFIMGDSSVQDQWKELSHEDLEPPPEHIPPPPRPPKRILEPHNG
# Assay: PTP1B enzyme inhibition assay (pNpp substrate)
# Type: biochemical
# Settings: inhibition of recombinant human PTP1B, pNpp 5 mM, 30 mins at 25° C; inhibitor concentration not given
# Method: Protein tyrosine phosphatase 1B (PTP1B) is an intracellular enzyme which functions by removing the phosphate groups from phosphorylated tyrosine residues of cellular proteins. PTP1B has been implicated as a negative regulator of insulin action and therefore is of therapeutic interest. The ability of the test compounds to inhibit the activity of PTP1B is determined using an enzyme inhibition assay.
# The assay is performed using two independent substrates of PTP1B namely, p-nitrophenyl phosphate (pNpp) and the phosphorylated Epidermal growth factor receptor peptide (EGFR).
# In the assay performed with pNpp, the action of PTP1B results in the release of p-nitrophenol, which is yellow in colour and can be measured at 410 nm. In the case of the assay using EGFR, action of PTP1B results in the release of free phosphate group. This is trapped using a reagent containing ammonium molybdate and malachite green resulting in a colored complex whose absorbance can be measured at 620 nm.
# 1× Assay buffer 50 mM HEPES (pH 7.4) • 1 mM EDTA • 1 mM DTT • 0.05% Igepal® CA-630
# Dilute recombinant Human PTP1B 1:150 in 1× Assay buffer for 10× stock,
# Prepare 10× stock of pNpp (50 mM) in 1× Assay buffer
# Prepare 100× stock in 100% DMSO, dilute 1:10 with 1× Assay buffer to get 10× stock in 10% DMSO.
# PTP1B inhibition assay was performed using recombinant human PTP1B. PTP1B (0.016 μg/well) was incubated in a buffer containing 50 mM HEPES, 1 mM DTT, 1 mM EDTA and 0.05% Igepal® CA-630 with or without inhibitor (10× stock, final DMSO concentration is 1%) for 30 mins at 25° C. This was followed by addition of p-Nitrophenyl phosphate (pNpp) substrate (5 mM). The final volume of the reaction mixture is 50 μL and experiment was done in 96 well half area plate. The incubation was continued for 30 mins at 25° C. The conversion of pNpp to p-Nitrophenol (pNp) was measured at 410 nm in Spectramaxplus Spectrophotometer (Molecular Devices, USA).
row,Activity Score,Compound
1,(++) (++ = 20-50% inhibition),"O=C(O)Cc1ccc(NC2=NC(=O)C(=Cc3ccc(-c4ccccc4)cc3)O2)cc1 [Compound 100, [4-(5-Biphenyl-4-ylmethylene-4-oxo-4,5-dihydro-oxazol-2-ylamino)-phenyl]-acetic acid]"
2,(+) (+ = 10-20% inhibition),"COc1cc(C=C2SC(Nc3ccc(CC(=O)O)cc3)=NC2=O)cc(OC)c1O [Compound 56, {4-[c-(4-hydroxy-3,5-dimethoxy-benzylidene)-4-oxo-4,5-dihydro-thiazol-2-ylamino]-phenyl}-acetic acid]"
3,(++) (++ = 20-50% inhibition),"O=C1N=C(Nc2ccc(CC(C(=O)O)C(=O)O)cc2)SC1=Cc1ccc(-c2ccccc2)cc1 [Compound 67, 2-[4-(5-Biphenyl-4-ylmethylene-4-oxo-4,5-dihydro-thiazol-2-ylamino)-benzyl]-malonic acid]"
4,(+++) (+++ = >50% inhibition),"O=C(O)Cc1ccc(NC2=NC(=O)C(=Cc3cc4ccccc4cc3OCc3ccccc3)S2)cc1 [Compound 3, {4-[5-(3-Benzyloxy-naphthalen-2-ylmethylene)-4-oxo-4,5-dihydro-thiazol-2-ylamino]-phenyl}-acetic acid]"
5,(+++) (+++ = >50% inhibition),"O=C(O)Cc1ccc(NC2=NC(=O)C(=Cc3cn(CC(=O)O)c4ccccc34)S2)cc1 [Compound 2, {4-[5-(1-Carboxymethyl-1H-indol-3-ylmethylene)-4-oxo-4,5-dihydro-thiazol-2-ylamino]-phenyl}-acetic acid]"
6,(+) (+ = 10-20% inhibition),"O=C(O)Cc1ccc(NC2=NC(=O)C(=Cc3ccc(C(=O)N4CCOCC4)cc3)S2)cc1 [Compound 36, (4-{5-[4-(Morpholine-4-carbonyl)-benzylidene]-4-oxo-4,5-dihydro-thiazol-2-ylamino}-phenyl)-acetic acid]"
7,(+++) (+++ = >50% inhibition),"O=C([O-])CCc1ccc(NC2=NC(=O)C(=Cc3cc4ccccc4cc3OCc3ccccc3)S2)cc1.[Na+] [Compound 96, 3-{4-[5-(3-Benzyloxy-naphthalen-2-ylmethylene)-4-oxo-4,5-dihydro-thiazol-2-lamino]-phenyl}-sodium propionate]"
8,(+) (+ = 10-20% inhibition),"CSc1ccc(-c2ccc(C=C3SC(Nc4ccc(CC(=O)NS(=O)(=O)c5ccc(C(F)(F)F)cc5)cc4)=NC3=O)c(F)c2)cc1.[Na] [Compound 239, N-(2-{4-[5-(3-Fluoro-4′-methylsulfanyl-biphenyl-4-ylmethylene)-4-oxo-4,5-dihydro-thiazol-2-ylamino]-phenyl}-acetyl)-4-trifluoromethyl-benzenesulfonamide sodium salt]"
9,(+++) (+++ = >50% inhibition),"O=C([O-])Cc1ccc(NC2=NC(=O)C(=Cc3cc4ccccc4cc3OCc3ccc(F)cc3)S2)cc1.[Na+] [Compound 113, (4-{5-[3-(4-Fluoro-benzyloxy)-naphthalen-2-ylmethylene-4-oxo-4,5-dihydro-thiazol-2-ylamino)-phenyl]-acetyl}-sodium acetate]"
10,(+++) (+++ = >50% inhibition),"CC(C)Oc1cc2ccccc2cc1C=C1SC(Nc2cccc(CC(=O)O)c2)=NC1=O [Compound 21, {3-[5-(3-Isopropoxy-naphthalen-2-ylmethylene)-4-oxo-4,5-dihydro-thiazol-2-ylamino]-phenyl}-acetic acid]"
11,(+++) (+++ = >50% inhibition),"O=C(O)Cc1ccc(NC2=NC(=O)C(=Cc3cccn3-c3ccccc3)S2)cc1 [Compound 62, {4-[4-Oxo-5-(1-phenyl-1H-pyrrol-2-ylmethylene)-4,5-dihydro-thiazol-2-ylamino]-phenyl}-acetic acid]"
12,(+++) (+++ = >50% inhibition),"O=C([O-])CCc1ccc(NC2=NC(=O)C(=Cc3ccc4cc(F)ccc4c3)S2)cc1.[Na+] [Compound 205, 3-{4-[5-(6-Fluoro-naphthalen-2-ylmethylene)-4-oxo-4,5-dihydro-thiazol-2-ylamino]-phenyl}-sodium propionate]"
13,(+++) (+++ = >50% inhibition),"COc1c(C=C2SC(Nc3ccc(CC(=O)O)cc3)=NC2=O)ccc2ccccc12 [Compound 146, {4-[5-(1-Methoxy-naphthalen-2-ylmethylene)-4-oxo-4,5-dihydro-thiazol-2-ylamino]-phenyl}-acetic acid]"
14,(++) (++ = 20-50% inhibition),"Cc1ccc(S(=O)(=O)NC(=O)Cc2ccc(NC3=NC(=O)C(=Cc4cc5ccccc5cc4OCc4ccccc4)S3)cc2)cc1.[Na] [Compound 104, N-(2-{4-[5-(3-Benzyloxy-naphthalen-2-ylmethylene)-4-oxo-4,5-dihydro-thiazol-2-ylamino]-phenyl}-acetyl)-4-methyl-benzenesulfonamide sodium salt]"
15,(+++) (+++ = >50% inhibition),"O=C(Cc1ccc(NC2=NC(=O)C(=Cc3ccc(-c4ccccc4)cc3)S2)cc1)NS(=O)(=O)c1ccc(C(F)(F)F)cc1.[Na] [Compound 219, N-{2-[4-(5-Biphenyl-4-ylmethylene-4-oxo-4,5-dihydro-thiazol-2-ylamino)-phenyl]-acetyl}-4-trifluoromethyl-benzenesulfonamide, sodium salt]"
16,(++) (++ = 20-50% inhibition),"CC(=C1SC(Nc2ccc(CC(=O)O)cc2)=NC1=O)c1cc2ccccc2o1 [Compound 13, {4-[5-(1-Benzofuran-2-yl-ethylidene)-4-oxo-4,5-dihydro-thiazol-2-ylamino]-phenyl}-acetic acid]"
17,(+++) (+++ = >50% inhibition),"O=C(O)CCc1ccc(NC2=NC(=O)C(=Cc3cn(CC(=O)O)c4ccccc34)S2)cc1 [Compound 43, 3-{4-[5-(1-Carboxymethyl-1H-indo-3-ylmethylene)-4-oxo-4,5-dihydro-thiazol-2-ylamino]-phenyl}-propionic acid]"
18,(+++) (+++ = >50% inhibition),"CCC(C(=O)O)c1ccc(NC2=NC(=O)C(=Cc3cc4ccccc4cc3OCc3ccccc3)S2)cc1 (stereo not drawn) [Compound 48, 2-{4-[5-(3-Benzyloxy-naphthalen-2-ylmethylene)-4-oxo-4,5-dihydro-thiazol-2-ylamino]-phenyl}-butyric acid]"
19,(+) (+ = 10-20% inhibition),"(4-{5-[3-(3-Methoxy-benzyloxy)-naphthalen-2-ylmethylene]-4-oxo-4-4,5-dihydro-thiazol-2-ylamino}-phenyl)-sodium acetate [Compound 181]"
20,(+++) (+++ = >50% inhibition),"O=C(O)Cc1ccc(NC2=NC(=O)C(=Cc3cccc(N4CCN(c5ccccn5)CC4)c3)S2)cc1 [Compound 90, (4-{4-Oxo-5-[3-(4-pyridin-2-yl-piperazin-1-yl)-benzylidene]-4,5-dihydro-thiazol-2-ylamino}-phenyl)-acetic acid]"
21,(+++) (+++ = >50% inhibition),"COc1ccc(S(=O)(=O)NC(=O)Cc2ccc(NC3=NC(=O)C(=Cc4ccc(-c5ccccc5)cc4)S3)cc2)cc1.[Na] [Compound 226, N-{2-[4-(5-Biphenyl-4-ylmethylene-4-oxo-4,5-dihydro-thiazol-2-ylamino)-phenyl]-acetyl}-4-methoxy-benzenesulfonamide, sodium salt]"
22,(+++) (+++ = >50% inhibition),"O=C(O)Cc1ccc(NC2=NC(=O)C(=Cc3cc4ccccc4cc3O)S2)cc1 [Compound 32, {4-[5-(3-Hydroxy-naphthalen-2-ylmethylene)-4-oxo-4,5-dihydro-thiazol-2-ylamino]-phenyl}-acetic acid]"
23,(+++) (+++ = >50% inhibition),"CCOc1ccc(-c2ccc(C=C3SC(Nc4ccc(CC(=O)NS(=O)(=O)c5ccc(C)cc5)cc4)=NC3=O)cc2)cc1.[Na] [Compound 214, N-(2-{4-[5-(4′-Ethoxy-biphenyl-4-ylmethylene)-4-oxo-4,5-dihydro-thiazol-2-ylamino]-phenyl}-acetyl)-4-methyl-benzenesulfonamide sodium salt]"
24,(+++) (+++ = >50% inhibition),"O=C(O)COc1ccc2cc(C=C3SC(Nc4ccc(CC(=O)O)cc4)=NC3=O)ccc2c1 [Compound 163, {4-[5-(6-Carboxymethoxy-naphthalen-2-ylmethylene)-4-oxo-4,5-dihydro-thiazol-2-ylamino]-phenyl}-acetic acid]"
